These results are taken from patent US8822430B2 (Gilead Sciences, Inc., priority 2009, dated 2014).

The assay deals with HCV 1b RLuc cells (dicistronic genotype 1b Con1 replicon). Description: Renilla luciferase (RLuc)-based HCV replicon reporter assay. The format is cell-based, HCV genotype 1b. Particulars: Hepatitis C virus, 72 h, HCV 1b RLuc replicon, 72 hours, read-out: Activity (antiviral potency [EC50]). How it is done: Antiviral potency (EC50) was determined using a Renilla luciferase (RLuc)-based HCV replicon reporter assay. To perform the assay, HCV 1b RLuc cells (harboring a dicistronic genotype 1b Con1 replicon that encodes a RLuc reporter), or HCV 1a RLuc cells (harboring a dicistronic genotype 1a H77 replicon that encodes a RLuc reporter), were dispensed into 384-well plates. Compounds were re-suspended in DMSO at a concentration of 10 mM and serially diluted in DMSO using an automated pipeting instrument. Serially diluted compounds were mixed with cell culture media and added to the seeded cells. DMSO was used as a negative (solvent) control, and the protease inhibitor ITMN-191 was included at a concentration >100×EC50 as a positive control. 72 hours later, cells were lysed and Renilla luciferase activity quantified as recommended by the manufacturer (Promega-Madison, Wis.). Non-linear regression was performed to calculate EC50 values.
Biological data (antiviral potency [EC50] was determined using a Renilla luciferase (RLuc)-based HCV replicon reporter assay—HCV 1b RLuc) for representative compounds of the invention is provided in the following table. These compounds can be prepared using procedures similar to those described above.
Background: In antiviral work, replicon cells carry a viral genome segment that copies itself.

Where two headings read alike, the source gives them in different places.

On to `COC(=O)N[C@@H](CCOC(F)F)C(=O)N1CC2(CC2)C[C@H]1c1ncc(-c2ccc3cc(-c4ccc(-c5cnc([C@@H]6[C@H]7CC[C@H](C7)N6C(=O)[C@@H](NC(=O)OC)C(C)C)[nH]5)cc4)ccc3c2)[nH]1`, for which the EC50 (in general, the concentration needed to bring the measured effect to its halfway point) came to 0.0114 nM.
On the same count and under the same terms, in the case of `COC(=O)N[C@H](C(=O)N1C[C@@H](C#N)C[C@H]1c1ncc(-c2ccc3c(c2)C(F)(F)c2cc(-c4ccc5nc([C@@H]6CC7(CC7)CN6C(=O)[C@@H](NC(=O)OC)C(C)C)[nH]c5c4)ccc2-3)[nH]1)C(C)C` it was 0.0064 nM; in that of `COC(=O)N[C@H](C(=O)N1CCC[C@H]1c1ncc(-c2ccc3cc(-c4ccc5cc(-c6cnc([C@@H]7[C@H]8CC[C@H](C8)N7C(=O)[C@@H](NC(=O)OC)C(C)C)[nH]6)ccc5c4)ccc3c2)[nH]1)C(C)C`, 0.28 nM.
Still for that read-out and setting: the figure for `COC(=O)N[C@H](C(=O)N1CCC[C@H]1c1ncc(-c2ccc3c(c2)CN(C)C(=O)c2cc(-c4cnc([C@@H]5CCCN5C(=O)[C@@H](NC(=O)OC)C(C)C)[nH]4)ccc2-3)[nH]1)C(C)C` is 2.14 nM; for `COC(=O)N[C@H]1CCCN(Cc2ncc(-c3ccc(-c4ccc(-c5cnc([C@@H]6CCCN6C(=O)[C@@H](NC(=O)OC)C(C)C)[nH]5)cc4)cc3)[nH]2)C1=O` it is 0.147 nM.
In the case of `COC(=O)N[C@H](C(=O)N1CCC[C@H]1c1ncc(-c2ccc(-c3ccc(-c4ccc(-c5cnc([C@@H]6CCCN6C(=O)[C@@H](NC(=O)OC)C(C)C)[nH]5)cc4)cc3)cc2)[nH]1)C(C)C`, the EC50 worked out at 0.024 nM.
The same measure, in the same setting: in the case of `COC(=O)N[C@H](C(=O)N1CCC[C@H]1c1ncc(-c2ccc(-c3cnc(-c4ccc(-c5cnc([C@@H]6CCCN6C(=O)[C@@H](NC(=O)OC)C(C)C)[nH]5)cc4)s3)cc2)[nH]1)C(C)C` it was 0.0385 nM; in that of `COC(=O)N[C@H](C(=O)N1CCC[C@H]1c1ncc(-c2ccc(-c3ccc(-c4cnc([C@@H]5CN(S(C)(=O)=O)CN5C(=O)[C@@H](NC(=O)OC)C(C)C)[nH]4)cc3)cc2)[nH]1)C(C)C`, 0.0383 nM; in that of `COC(=O)N[C@H](C(=O)N1CCC[C@H]1c1nc2ccc(-c3ccc(-c4ccc5nc([C@@H]6CCCN6C(=O)[C@@H](NC(=O)OC)C(C)C)[nH]c5c4)cc3)cc2[nH]1)C(C)C`, 0.0099 nM.
Turning to `COC(=O)N[C@@H](CS(C)(=O)=O)C(=O)N1[C@@H]2CC[C@@H](C2)[C@H]1c1nc2ccc(-c3ccc4c(c3)C(F)(F)c3cc(-c5cnc([C@@H]6CC7(CC7)CN6C(=O)[C@@H](NC(=O)OC)C(C)C)[nH]5)ccc3-4)cc2[nH]1`, the half-maximal effective concentration (EC50) was 0.005 nM.
Still for that read-out and setting: in the case of `COC(=O)N[C@H](C(=O)N1CCC[C@H]1c1ncc(-c2ccc3c(c2)COc2cc(-c4cnc([C@@H]5CCCN5C(=O)[C@@H](NC(=O)OC)C(C)C)[nH]4)ccc2-3)[nH]1)C(C)C` it was 0.0131 nM; in that of `CC[C@H](NC(=O)OC)C(=O)N1C[C@@H](C#N)C[C@H]1c1ncc(-c2ccc(-c3ccc4cc(-c5cnc([C@@H]6CC7(CC7)CN6C(=O)[C@@H](NC(=O)OC)C(C)C)[nH]5)ccc4c3)cc2)[nH]1`, 0.0176 nM; in that of `COC(=O)N[C@H](C(=O)N1CCC[C@H]1c1ncc(-c2ccc3cc(-c4ccc(-c5cnc([C@@H]6C[C@@H](C#N)CN6C(=O)[C@@H](NC(=O)OC)C(C)C)[nH]5)cc4)ccc3c2)[nH]1)C(C)C`, 0.0048 nM.
As for `COC(=O)N[C@@H](CCS(C)(=O)=O)C(=O)N1[C@@H]2CC[C@@H](C2)[C@H]1c1nc2ccc(-c3ccc4c(c3)C(F)(F)c3cc(-c5cnc([C@@H]6CC7(CC7)CN6C(=O)[C@@H](NC(=O)OC)C(C)C)[nH]5)ccc3-4)cc2[nH]1`, the concentration giving a half-maximal response (EC50) came to 0.0218 nM.
Still for that read-out and setting: in the case of `COC(=O)N[C@H](C(=O)N1CCC[C@H]1c1ncc(-c2ccc(-c3ccc(-c4cnc([C@H](C)N5CCC[C@@H](NC(=O)OC)C5=O)[nH]4)cc3)cc2)[nH]1)C(C)C` it was 0.661 nM; in that of `COC(=O)N[C@H](C(=O)N1CCC[C@H]1c1ncc(-c2ccc(-c3ccc(-c4cnc(CN5CCC[C@@H](N)C5=O)[nH]4)cc3)cc2)[nH]1)C(C)C`, 7.55 nM; in that of `CC[C@H](NC(=O)OC)C(=O)N1C[C@@H](C#N)C[C@H]1c1ncc(-c2ccc3cc(-c4ccc(-c5cnc([C@@H]6CC7(CC7)CN6C(=O)[C@@H](NC(=O)OC)C(C)C)[nH]5)cc4)ccc3c2)[nH]1`, 0.0155 nM.
The same measure, in the same setting: the figure for `COC(=O)N[C@H](C(=O)N1CCC[C@H]1c1ncc(-c2ccc(C#Cc3ccc(-c4cnc([C@@H]5CN(CC(F)(F)F)CN5C(=O)[C@@H](NC(=O)OC)C(C)C)[nH]4)cc3)cc2)[nH]1)C(C)C` is 0.0304 nM; for `COC(=O)N[C@H](C(=O)N1CCC[C@H]1c1ncc(-c2ccc(-c3ccc(-c4cnc([C@@H]5CC6(CCC6)ON5C(=O)[C@@H](NC(=O)OC)C(C)C)[nH]4)cc3)cc2)[nH]1)C(C)C` it is 0.0083 nM.
For the compound `COC(=O)N[C@H](C(=O)N1CCC[C@H]1c1ncc(-c2ccc3cc(-c4cnc([C@@H]5CCCN5C(=O)[C@@H](NC(=O)OC)C(C)C)[nH]4)ccc3c2)[nH]1)C(C)C`, the EC50 (GETYPE1B) was found to be 0.0511 nM.
In the case of `COC(=O)N[C@H](C(=O)N1CCC[C@H]1c1ncc(-c2ccc(-n3ccc(-c4cnc([C@@H]5CCCN5C(=O)[C@@H](NC(=O)OC)C(C)C)[nH]4)cc3=O)cc2)[nH]1)C(C)C`, the half-maximal effective concentration (EC50) was 38.1 nM.
With `COC(=O)N[C@H](C(=O)N1CC2(CC2)C[C@H]1c1ncc(-c2ccc3cc(-c4ccc(-c5cnc([C@@H]6[C@H]7CC[C@H](C7)N6C(=O)[C@H](NC(=O)OC)c6ccccc6)[nH]5)cc4)ccc3c2)[nH]1)C(C)C`, the EC50 was determined as 0.0261 nM.
Still for that read-out and setting: the figure for `COC(=O)N[C@H](C(=O)N1CCC[C@H]1c1ncc(-c2ccc3cc(-c4ccc(-c5cnc([C@@H]6CCCN6C(=O)[C@H](NC(=O)OC)C6CCOCC6)[nH]5)cc4)ccc3c2)[nH]1)C(C)C` is 0.171 nM; for `COC(=O)N[C@H](C(=O)N1C[C@@H](C#N)C[C@H]1c1ncc(-c2ccc3cc(-c4ccc(-c5cnc([C@@H]6CC7(CC7)CN6C(=O)[C@@H](NC(=O)OC)C(C)C)[nH]5)cc4)ccc3c2)[nH]1)C(C)C` it is 0.0169 nM; for `C=C1C[C@@H](c2ncc(-c3ccc(-c4ccc5cc(-c6cnc([C@@H]7CCCN7C(=O)[C@@H](NC(=O)OC)C(C)C)[nH]6)ccc5c4)cc3)[nH]2)N(C(=O)[C@@H](NC(=O)OC)C(C)C)C1` it is 0.0113 nM.
Still for that read-out and setting: the figure for `COC(=O)N[C@@H](CCC(F)(F)F)C(=O)N1CCC[C@H]1c1ncc(-c2ccc(-c3ccc(-c4cnc([C@@H]5CCCN5C(=O)[C@H](CCC(F)(F)F)NC(=O)OC)[nH]4)cc3)cc2)[nH]1` is 0.0635 nM.
On the same count and under the same terms, the figure for `COC(=O)NC(C(=O)N1CCC[C@H]1c1ncc(-c2cc3sc(C#Cc4cnc([C@@H]5CCCN5C(=O)[C@@H](NC(=O)OC)C(C)C)[nH]4)cc3s2)[nH]1)C(C)C` (some centres unmarked) is 0.0503 nM; for `CC[C@H](C)[C@H](NC(=O)OC)C(=O)N1CCC[C@H]1c1ncc(C#Cc2ccc3cc(-c4cnc([C@@H]5CCCN5C(=O)[C@@H](NC(=O)OC)[C@@H](C)CC)[nH]4)ccc3c2)[nH]1` it is 0.0147 nM.
On to `COC(=O)NC(C(=O)N1CCC[C@H]1c1ncc(-c2ccc3c(c2)COc2c-3ccc3cc(-c4cnc([C@@H]5CCCN5C(=O)C(NC(=O)OC)c5ccccc5)[nH]4)ccc23)[nH]1)c1ccccc1` (some centres unmarked), for which the EC50 was 0.0275 nM.
The same measure, in the same setting: in the case of `COC(=O)N[C@H](C(=O)N1CCC[C@H]1c1ncc(-c2ccc3c(c2)sc2cc(-c4cnc([C@@H]5CCCN5C(=O)[C@@H](NC(=O)OC)C(C)C)[nH]4)ccc23)[nH]1)C(C)C` it was 0.0074 nM.
On the same count and under the same terms, the figure for `COC(=O)N[C@H](C(=O)N1CCC[C@H]1c1ncc(-c2ccc(-c3ccc(-c4cnc([C@@H]5CCCN5C(=O)[C@@H](NC(=O)OC)C(C)(C)S(C)(=O)=O)[nH]4)cc3)cc2)[nH]1)C(C)C` is 0.161 nM.
The same measure, in the same setting: in the case of `COC(=O)N[C@H](C(=O)N1CCC[C@H]1c1ncc(-c2ccc3cc(-c4ccc(-c5cnc([C@@H]6C[C@H](c7ccccc7)CN6C(=O)[C@@H](NC(=O)OC)C(C)C)[nH]5)cc4)ccc3c2)[nH]1)C(C)C` it was 0.0189 nM; in that of `COC(=O)N[C@H](C(=O)N1CCC[C@H]1c1ncc(-c2ccc3cc(-c4ccc5nc([C@@H]6CCN6C(=O)[C@H](NC(=O)OC)c6ccccc6)[nH]c5c4)ccc3c2)[nH]1)C(C)C`, 0.07 nM.
In the case of `COC(=O)N[C@H](C(=O)N1CCC[C@H]1c1ncc(-c2ccc(-c3ccc(-c4cnc([C@@H]5CCCN5C(=O)[C@@H](NC(=O)OC)C(C)C)[nH]4)c(C#N)c3)cc2)[nH]1)C(C)C`, the EC50 worked out at 0.0192 nM.
Same read-out and setting: the figure for `COC(=O)N[C@H](C(=O)N1CCC[C@H]1c1ncc(-c2ccc(C#Cc3ccc(-c4cnc([C@@H]5CN(CC(F)(F)F)CCN5C(=O)[C@@H](NC(=O)OC)C(C)C)[nH]4)cc3)cc2)[nH]1)C(C)C` is 1.51 nM; for `COC(=O)N[C@H](C(=O)N1CC2(CC2)C[C@H]1c1ncc(-c2ccc3cc(-c4ccc(-c5cnc([C@@H]6[C@H]7CC[C@H](C7)N6C(=O)[C@@H](NC(=O)OC)C(C)(C)OC)[nH]5)cc4)ccc3c2)[nH]1)C(C)C` it is 0.0145 nM; for `COC(=O)N[C@H](C(=O)N1CCC[C@H]1c1ncc(-c2ccc(-c3ccc(-c4cnc([C@@H]5C[C@H](COC(F)F)CN5C(=O)[C@@H](NC(=O)OC)C(C)C)[nH]4)cc3)cc2)[nH]1)C(C)C` it is 0.015 nM.
Still for that read-out and setting: the figure for `COC(=O)N[C@H](C(=O)N1C[C@@H](C#N)C[C@H]1c1ncc(-c2ccc3cc(-c4ccc(-c5cnc([C@@H]6[C@H]7CC[C@H](C7)N6C(=O)[C@@H](NC(=O)OC)C(C)C)[nH]5)cc4)ccc3c2)[nH]1)C(C)C` is 0.0097 nM.
